Records with an inconclusive call do not appear.
target: Virion infectivity factor (Human immunodeficiency virus type 1 group M subtype B (isolate BH10)) + Virion infectivity factor (Human immunodeficiency virus type 1 group M subtype B (isolate BRU/LAI)) + Virion infectivity factor (Human immunodeficiency virus type 1 group M subtype B (isolate PCV12)) + Virion infectivity factor (Human immunodeficiency virus type 1 group M subtype B (isolate HXB2)) + DNA dC->dU-editing enzyme APOBEC-3G (Homo sapiens) (UniProt P69720+P69721+P69722+P69723+Q9HC16); assay: inhibitors of Vif binding to APOBEC3G peptide, primary screen, biochemical, TR-FRET, GST-Vif 1-94, biotin-A3G peptide, dose response retest (AID 1117319);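 further: Vif residues 1-94 fused to GST binding biotinylated APOBEC3G peptide 110-148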

Row | Structure (SMILES) | IC50
1 | COc1ccc(CCNC(=O)/C=C/c2ccco2)cc1 | 37 µM
2 | CCOc1cccc(OCC)c2c(C)[n+](CC3CCCO3)c(C)c1-2 (stereo not given) | 0.85 µM
3 | CCOC(=O)C1=C(C)N=c2s/c(=C/c3ccco3)c(=O)n2C1c1cccc(OC)c1 (stereo not given) | 33 µM
4 | O=C(O)CC1OCC=C2CN3CCC45C6=CC(=O)C(=O)C([N+](=O)[O-])=C6NC4C1C2CC35 (stereo not given) | 16.3 µM
5 | Cc1cc(C)n(CC(=O)NNC(=O)c2ccc(NC(=O)CC#N)cc2)n1 | 91.3 µM
6 | O=C(NC(=S)Nc1cccc(S(=O)(=O)NC2=NCCC2)c1)c1cc(-c2ccco2)nc2ccccc12 | 8.99 µM
7 | O=C(/C=C/c1ccco1)c1cccnc1 | 14.1 µM
8 | CCCCC1=CC2=CC(=O)C(C)(OC(=O)c3cnc4ccccc4n3)C(=O)C2=CO1 (stereo not given) | 12.4 µM
9 | O=C(NCc1ccco1)c1cc(-c2cccc(Cl)c2)on1 | 36.9 µM
10 | CCOC(=O)C1CCN(Cc2cnc(Oc3ccc(OC)cc3)s2)CC1 | 80.9 µM
11 | CCc1ccc(N2C(=O)NC(=O)/C(=C\C=C\c3ccco3)C2=O)cc1 | 7.09 µM
12 | CC(=O)NN1C(=O)/C(=C\c2ccc(Br)o2)SC1=S | 5.73 µM
13 | O=C1CCCC(O)=C1N=Nc1cccc(C(=O)O)c1 | 5.61 µM
14 | COc1ccccc1NC(=O)COC(=O)c1cc2c(s1)CCC2 | 17.6 µM
15 | CCOCCNC(=O)c1ccccc1C(=O)NCCOCC | 89.2 µM
16 | COc1ccc(-c2nc3ccccc3n2OC(=O)N(C)C)cc1 | 42.9 µM
17 | CC(=O)C1=C(C)NC(C)=C(C(C)=O)C1c1cccs1 | 23.5 µM
18 | CCC(C)Cn1c(O)cc2nn(-c3nc4ccccc4s3)c(=O)c-2c1C (stereo not given) | 2.65 µM
19 | CC(=O)NN1C(=O)/C(=C/c2ccc(Br)o2)SC1=S | 11.7 µM
20 | Cn1cccc1C(=O)NC(=O)COC(=O)CC12CC3CC(CC(Br)(C3)C1)C2 | 58.5 µM
21 | O=C(CC1C(=O)NCCN1Cc1ccc(F)cc1)NCCN1CCCc2ccccc21 (stereo not given) | 97.4 µM
22 | CN=c1scc(-c2ccco2)n1/N=C/c1ccc(O)c(O)c1 | 9.26 µM
23 | COc1cc(OC)c2c(c1O)OC(c1ccccc1)CC2=O (stereo not given) | 4.82 µM
24 | CC(C(=O)O)N1C(=O)/C(=C/C=C/c2ccco2)SC1=S (stereo not given) | 0.39 µM
25 | O=C1C(Cl)=C(N2CCOCC2)C(=O)N1c1ccccc1 | 2.18 µM
26 | COc1ccc2c3c(cccc13)N(C)N=C2C | 4.23 µM
27 | Cc1c(O)cc2c(c1O)C(=O)CC(c1ccc(O)cc1)O2 (stereo not given) | 2.68 µM
28 | CCCCn1cnc2cc(NCc3ccncc3)ccc21 | 35.3 µM

Row | Structure (SMILES) | IC50
29 | Cn1c2ccccc2c2ccc3c(c21)C(=O)C=CC3=O | 23.8 µM
30 | Nc1c(C(=O)NC2CC2)sc2nc3c(c(-c4ccco4)c12)CC/C3=C/c1ccco1 | < 0.195 µM
31 | CCOC(=O)/C=C1\SCC(=O)N1CC(=O)NC(C)c1ccc(F)cc1 (stereo not given) | 28.8 µM
32 | Cc1nc(C)c(C(=O)Nc2nc3c(C)cccc3s2)o1 | 32 µM
33 | CN(C)C(CNC(=O)c1cccnc1Sc1ccccc1)c1ccco1 (stereo not given) | 64 µM
34 | CC(=O)c1cccc(NC(=O)c2cnn3ccccc23)c1 | 77.6 µM
35 | Oc1ccc2c(c1)C1CCCC1(N1CCOCC1)O2 (stereo not given) | 4.31 µM
36 | Cc1cc(C)cc(N(CC(=O)NCc2cccnc2)S(C)(=O)=O)c1 | 36.7 µM
37 | Clc1ccc(OCc2nn3c(-c4ccco4)nnc3s2)c(Cl)c1 | 63.1 µM
38 | O=C(Nc1ccc(Cl)c(-c2nc3ccccc3[nH]2)c1)c1cccnc1 | 79.7 µM
39 | Clc1ccc2nc3ccccn3c2c1 | 98.3 µM
40 | COCCNC(=O)COC(=O)c1[nH]c(C)c(C(C)=O)c1C | 9.88 µM
41 | COc1cc(C2Nc3ccccc3C(=O)N2c2ccccc2)ccc1O (stereo not given) | 39.4 µM
42 | COc1ccc2nc(NNC(=O)c3cc(=O)c4ccccc4o3)sc2c1 | 26.8 µM
43 | CN1CCC(N(C)C(=O)COc2ccccc2-c2ccccc2)CC1 | 10.8 µM
44 | COc1cc(C(=O)OCCN2CCCCC2)ccc1O | 45.4 µM
45 | CCC(=O)NNc1ncnc2ccccc12 | 16.4 µM
46 | Cc1cc(NC(=O)CCNS(=O)(=O)c2cc(Br)cnc2N)ccc1Br | 35.2 µM
47 | COC(=O)C1=C(C)NC(=O)/C1=C\c1cc(C)n(-c2ccccc2C)c1C | 14.2 µM
48 | Cc1cc(/C=C2\C(=O)NC(=O)N(Cc3ccco3)C2=O)c(C)n1-c1ccc(O)cc1 | 5.88 µM
49 | CC(=O)Nc1cccc(Oc2ncnc3scc(-c4ccccc4)c23)c1 | 16.8 µM
50 | CCNc1ccc(Br)cc(C(=O)/C=C/c2ccc(Cl)cc2)c1=O | 7.05 µM
51 | CCN(CC)c1ccc(C=Nc2ccc(N(C)C)cc2)c(O)c1 | 35.7 µM
52 | Oc1cc2c(cc1O)[C@H]1c3ccc(O)c(O)c3OC[C@@]1(O)C2 | 0.57 µM
53 | CC(=O)OC(C)C1C2=C(C(=O)CC1(C)O)C(=O)c1c(ccc(-c3ccc4c(c3O)C(=O)C3=C(C4=O)C(C(C)OC(C)=O)C(C)(O)CC3=O)c1O)C2=O (stereo not given) | 0.73 µM
54 | CCN(CC)C(=O)c1ccc2c(c1)C1C(Cl)C(Sc3ccccc3[N+](=O)[O-])CC1C(C(=O)O)N2 (stereo not given) | 13 µM
55 | O=C(O)c1c2c(nc3ccc(Cl)cc13)CCC2 | 23.4 µM
